Where “and” joins values, the source holds several entries; their conditions need not be identical. Equal values may be shown once. Inconclusive results and toxic doses are left out. Starred links: 1 amine or outer side, 2 acyl side, 3 side chain; linkers in the order of their positions; H or OH if unused. Positions of bridges follow the written chain, without caps; N, C: chain ends. Non-standard residues stand in square brackets, D forms with d. Residues, ends and D or L forms follow the SMILES beside them. Chains are numbered I, II in the order given. Actinocin(9to1) = Cc1c2oc3c(C)ccc(C(=O)[*:1])c3nc-2c(C(=O)[*:2])c(N)c1=O; aThr = C[C@H](O)[C@H](N)C(=O)O; NMeV = CN[C@H](C(=O)O)C(C)C; Sar = CNCC(=O)O
Test system: AK4 lymphoid leukemia ip, C3AKF1 mice, survival
Experiment: NCI In Vivo Anticancer Drug Screen. Data for tumor model AK4 Lymphoid Leukemia (intraperitoneal) in C3AKF1 (CHKRF1) mice
Details: endpoint: median survival time, higher = longer survival
Method: The antitumor activity of compounds was measured in mice bearing transplantable tumors. Survival or tumor size were measured and the results are expressed as the measurement made in the treated group (T) divided by the measurement made in the vehicle treated control group (C). The tumor model used in this assay is AK4 Lymphoid Leukemia (intraperitoneal) in C3AKF1 (CHKRF1) mice

[1] = dose: 200.0 mg/kg/injection, schedule: Q01DX010 (ip), vehicle: saline
[2] = dose: 50.0 mg/kg/injection, schedule: Q01DX010 (ip), vehicle: saline
[3] = dose: 100.0 mg/kg/injection, schedule: Q01DX010 (ip), vehicle: saline
[4] = dose: 400.0 mg/kg/injection, schedule: Q01DX010 (ip), vehicle: saline
[5] = dose: 25.0 mg/kg/injection, schedule: Q01DX010 (ip), vehicle: saline

CN(C)CC(=O)c1ccc(O)c(O)c1
T/C [1]: 112 % of control
T/C (dose: 300.0 mg/kg/injection, schedule: Q01DX010 (ip), vehicle: saline): 100 % of control
T/C (dose: 450.0 mg/kg/injection, schedule: Q01DX010 (ip), vehicle: saline): 112 % of control
T/C (dose: 675.0 mg/kg/injection, schedule: Q01DX010 (ip), vehicle: saline): 118 % of control

OC(CBr)C(O)C(O)C(O)CBr (centres undefined)
T/C [2]: 100 % of control and 87 % of control
T/C [3]: 93 % of control and 87 % of control
T/C [1]: 93 % of control and 100 % of control
T/C [4]: 100 % of control

Cc1c2oc3c(C)ccc(C(=O)N[C@@H]4C(=O)N[C@H](C(C)C)C(=O)N5CCC[C@H]5C(=O)N(C)CC(=O)N(C)[C@@H](C(C)C)C(=O)O[C@H]4C)c3nc-2c(C(=O)N[C@@H]2C(=O)N[C@H](C(C)C)C(=O)N3CCC[C@H]3C(=O)N(C)CC(=O)N(C)[C@@H](C(C)C)C(=O)O[C@H]2C)c(N)c1=O (I: [aThr][dV]P[Sar][NMeV] / II: [aThr][dV]P[Sar][NMeV]; ester I:1-I:C, II:1-II:C; linker I:N-II:N via Actinocin(9to1))
T/C (dose: 12.5 micrograms/kg/injection, schedule: Q01DX010 (ip), vehicle: other): 100 % of control and 86 % of control
T/C (dose: 25.0 micrograms/kg/injection, schedule: Q01DX010 (ip), vehicle: other): 95 % of control and 105 % of control
T/C (dose: 50.0 micrograms/kg/injection, schedule: Q01DX010 (ip), vehicle: other): 100 % of control
T/C (dose: 100.0 micrograms/kg/injection, schedule: Q01DX010 (ip), vehicle: other): 100 % of control and 109 % of control

O=P1(N(CCCl)CCCl)NCCCO1 (centres undefined)
T/C (dose: 11.3 mg/kg/injection, schedule: Q01DX010 (ip), vehicle: saline): 175 % of control
T/C (dose: 11.3 mg/kg/injection, schedule: Q01DX Z (ip), vehicle: saline): 180 % of control and 189 % of control
T/C (dose: 22.5 mg/kg/injection, schedule: Q01DX010 (ip), vehicle: saline): 170 % of control and 187 % of control
T/C (dose: 22.5 mg/kg/injection, schedule: Q01DX Z (ip), vehicle: saline): 202 % of control and 210 % of control
T/C (dose: 45.0 mg/kg/injection, schedule: Q01DX010 (ip), vehicle: saline): 220 % of control and 375 % of control
T/C (dose: 45.0 mg/kg/injection, schedule: Q01DX Z (ip), vehicle: saline): 196 % of control and 204 % of control
T/C (dose: 90.0 mg/kg/injection, schedule: Q01DX010 (ip), vehicle: saline): 105 % of control and 225 % of control
T/C (dose: 90.0 mg/kg/injection, schedule: Q01DX Z (ip), vehicle: saline): 151 % of control and 168 % of control
T/C (dose: 180.0 mg/kg/injection, schedule: Q01DX010 (ip), vehicle: saline): 105 % of control and 118 % of control
T/C (dose: 180.0 mg/kg/injection, schedule: Q01DX Z (ip), vehicle: saline): 113 % of control and 120 % of control

Nc1nc(=S)c2[nH]cnc2[nH]1
T/C (dose: 1.25 mg/kg/injection, schedule: Q01DX010 (ip), vehicle: other): 100 % of control and 114 % of control
T/C (dose: 2.5 mg/kg/injection, schedule: Q01DX010 (ip), vehicle: other): 93 % of control and 114 % of control
T/C (dose: 5.0 mg/kg/injection, schedule: Q01DX010 (ip), vehicle: other): 112 % of control
T/C (dose: 10.0 mg/kg/injection, schedule: Q01DX010 (ip), vehicle: other): 106 % of control

CN(C)c1nc(N(C)C)nc(N(C)C)n1
T/C (dose: 18.8 mg/kg/injection, schedule: Q01DX010 (ip), vehicle: saline): 94 % of control
T/C (dose: 37.5 mg/kg/injection, schedule: Q01DX010 (ip), vehicle: saline): 100 % of control
T/C (dose: 75.0 mg/kg/injection, schedule: Q01DX010 (ip), vehicle: saline): 94 % of control
T/C (dose: 150.0 mg/kg/injection, schedule: Q01DX010 (ip), vehicle: saline): 100 % of control

CS(=O)(=O)OCCC(=O)N1CCN(C(=O)CCOS(C)(=O)=O)CC1
T/C (dose: 12.5 mg/kg/injection, schedule: Q01DX010 (ip), vehicle: saline): 94 % of control and 116 % of control
T/C [5]: 116 % of control
T/C [3]: 122 % of control

O=C1C(NC(=O)C2CCCCC2)=C(N2CC2)C(=O)C(NC(=O)C2CCCCC2)=C1N1CC1
T/C [5]: 90 % of control
T/C [2]: 95 % of control and 100 % of control
T/C [3]: 95 % of control and 100 % of control
T/C [1]: 100 % of control and 110 % of control
T/C [4]: 116 % of control

Nc1nc(N)c2nc(CNc3ccc(C(=O)NC(CCC(=O)O)C(=O)O)cc3)cnc2n1 (centres undefined)
T/C (dose: 0.05 mg/kg/injection, schedule: Q01DX010 (ip), vehicle: other): 120 % of control
T/C (dose: 0.1 mg/kg/injection, schedule: Q01DX010 (ip), vehicle: other): 160 % of control and 215 % of control
T/C (dose: 0.2 mg/kg/injection, schedule: Q01DX010 (ip), vehicle: other): 180 % of control and 300 % of control

CC1CCOS(=O)O1 (centres undefined)
T/C (dose: 10.0 mg/kg/injection, schedule: Q01DX010 (ip), vehicle: saline): 100 % of control
T/C (dose: 20.0 mg/kg/injection, schedule: Q01DX010 (ip), vehicle: saline): 88 % of control and 100 % of control
T/C (dose: 40.0 mg/kg/injection, schedule: Q01DX010 (ip), vehicle: saline): 90 % of control and 100 % of control
T/C (dose: 80.0 mg/kg/injection, schedule: Q01DX010 (ip), vehicle: saline): 88 % of control

S=P(N1CC1)(N1CC1)N1CC1
T/C (dose: 0.75 mg/kg/injection, schedule: Q01DX010 (ip), vehicle: saline): 104 % of control and 105 % of control
T/C (dose: 1.5 mg/kg/injection, schedule: Q01DX010 (ip), vehicle: saline): 100 % of control and 105 % of control
T/C (dose: 3.0 mg/kg/injection, schedule: Q01DX010 (ip), vehicle: saline): 95 % of control and 104 % of control
T/C (dose: 6.0 mg/kg/injection, schedule: Q01DX010 (ip), vehicle: saline): 105 % of control and 109 % of control

Reference: PubChem BioAssay AID236 (DTP/NCI, 2004)
